From ChEMBL document CHEMBL3045682, “Synthesis of some new indolo[2,3-c]isoquinolinyl pyrazoles, -1,3,4-oxadiazoles and their biological activities” (2013)

What was measured:
Format in all cases: functional
[1] = system: Aspergillus fumigatus; test: Antifungal activity against Aspergillus fumigatus assessed as growth inhibition at 1 mg/ml by cup-plate method; details: read-out: IZ
[2] = system: Aspergillus flavus; test: Antifungal activity against Aspergillus flavus assessed as growth inhibition at 1 mg/ml by cup-plate method; details: read-out: IZ
[3] = system: Aspergillus niger; test: Antifungal activity against Aspergillus niger assessed as growth inhibition at 1 mg/ml by cup-plate method; details: read-out: IZ
[4] = system: Pseudomonas putida; test: Antibacterial activity against Pseudomonas putida assessed as growth inhibition at 1 mg/ml by cup-plate method; details: read-out: IZ
[5] = system: Bacillus subtilis; test: Antibacterial activity against Bacillus subtilis assessed as growth inhibition at 1 mg/ml by cup-plate method; details: read-out: IZ
[6] = system: Escherichia coli; test: Antibacterial activity against Escherichia coli assessed as growth inhibition at 1 mg/ml by cup-plate method; details: read-out: IZ
[7] = system: Radical scavenging activity; test: Antioxidant activity assessed as DPPH free radical scavenging activity at 50 ug/ml by spectrophotometric analysis relative to control
[8] = system: Radical scavenging activity; test: Antioxidant activity assessed as DPPH free radical scavenging activity at 25 ug/ml by spectrophotometric analysis relative to control
[9] = system: Radical scavenging activity; test: Antioxidant activity assessed as DPPH free radical scavenging activity at 100 ug/ml by spectrophotometric analysis relative to control
[10] = system: Radical scavenging activity; test: Antioxidant activity assessed as DPPH free radical scavenging activity at 75 ug/ml by spectrophotometric analysis relative to control

| Structure (SMILES) | zone of inhibition at 1000 µg/mL [1] [mm] | zone of inhibition at 1000 µg/mL [2] [mm] | zone of inhibition at 1000 µg/mL [3] [mm] | zone of inhibition at 1000 µg/mL [4] [mm] | zone of inhibition at 1000 µg/mL [5] [mm] | zone of inhibition at 1000 µg/mL [6] [mm] | Activity [7] [%] | Activity [8] [%] | Activity [9] [%] | Activity [10] [%] |
| --- | --- | --- | --- | --- | --- | --- | --- | --- | --- | --- |
| O=C(n1nc(-c2ccccc2)cc1-c1ccccc1)n1c(=O)c2ccccc2c2c3cc(Cl)ccc3[nH]c21 | 15 | 9 | 4 | 18 | 13 | 10 |  |  |  |  |
| COc1ccc2[nH]c3c(c2c1)c1ccccc1c(=O)n3-c1n[nH]c(=S)o1 | 15 | 10 | 10 | 7 | 10 | 13 | 67.8 | 60.8 |  |  |
| O=c1c2ccccc2c2c3cc(Cl)ccc3[nH]c2n1-c1n[nH]c(=S)o1 | 17 | 16 | 17 | 20 | 19 | 18 | 69.8 | 68.3 | 68.9 | 58 |
| COc1ccc2[nH]c3c(c2c1)c1ccccc1c(=O)n3C(=O)n1nc(C)cc1C | 4 | 8 | 10 | 10 | 8 | 11 |  |  |  | 53.8 |
| CN[C@@H]1[C@H](O[C@H]2[C@H](O[C@H]3[C@H](O)[C@@H](O)[C@H](N=C(N)N)[C@@H](O)[C@@H]3N=C(N)N)O[C@@H](C)[C@]2(O)C=O)O[C@@H](CO)[C@H](O)[C@H]1O [STREPTOMYCIN] |  |  |  | 22 | 20 | 19 |  |  |  |  |
| OC(Cn1cncn1)(Cn1cncn1)c1ccc(F)cc1F [FLUCONAZOLE] | 18 | 19 | 18 |  |  |  |  |  |  |  |
| COc1ccc2[nH]c3c(c2c1)c1ccccc1c(=O)n3C(=O)n1nc(-c2ccccc2)cc1-c1ccccc1 | 15 | 17 | 9 | 17 | 11 | 11 |  | 60 |  |  |
| Cc1ccc2[nH]c3c(c2c1)c1ccccc1c(=O)n3C(=O)n1nc(-c2ccccc2)cc1-c1ccccc1 | 4 | 13 | 15 | 13 | 9 | 5 | 56.9 | 56.2 |  |  |
| Cc1ccc2[nH]c3c(c2c1)c1ccccc1c(=O)n3C(=O)n1nc(C)cc1C | 11 | 16 | 8 | 10 | 11 | 13 |  |  | 64.7 |  |
| CC1=NN(C(=O)n2c(=O)c3ccccc3c3c4cc(Cl)ccc4[nH]c32)C(=O)C1 | 13 | 9 | 6 | 15 | 10 | 7 |  | 67.5 |  |  |
| CC1=NN(C(=O)n2c(=O)c3ccccc3c3c4cc(C)ccc4[nH]c32)C(=O)C1 | 15 | 14 | 12 | 18 | 8 | 10 | 64.2 | 58 |  | 56.5 |
| COc1ccc2[nH]c3c(c2c1)c1ccccc1c(=O)n3C(=O)N1N=C(C)CC1=O | 4 | 7 | 9 | 10 | 10 | 17 |  |  |  |  |
| Cc1cc(C)n(C(=O)n2c(=O)c3ccccc3c3c4cc(Cl)ccc4[nH]c32)n1 | 15 | 11 | 16 | 19 | 11 | 9 |  |  |  |  |
| Cc1ccc2[nH]c3c(c2c1)c1ccccc1c(=O)n3-c1n[nH]c(=S)o1 | 10 | 13 | 8 | 19 | 11 | 11 | 65.4 | 57.7 |  |  |
